Reference: patent publication US12358863B2, “Nitrogen-containing derivative of substituted phenol hydroxy acid ester, and preparation and use thereof” (priority 2019, dated 2025)
Where two headings read alike, the source gives them in different places.

Experiments:
[1] = system: Kunming mice; experiment: Determination of therapeutic index (ED50 and LD50, up-and-down method); format: in vivo, mouse; conditions: half male and half female
Experimental: Determination of therapeutic index (TI) of prodrug molecules: by referring the method in literature (Dixon, W. Staircase bioassay: the up-and-down method. Neurosci. Biobehav. Rev. 1991, 15, 47-50), the half-effective dose (ED50) and half-lethal dose (LD50) of the molecule to be tested were determined in Kunming mice (weighing 25-30 g, half male and half female). The therapeutic index for each molecule was calculated according to the equation: TI=LD50/ED50.

[2] = Decomposition of prodrugs in mouse plasma in vitro (HPLC of released propofol or other substituted phenol); format: in vitro ADME; conditions: 37° C.
Experimental: The prodrug to be tested was prepared into a saline solution of 10 mg/mL. 10 μL of drug-containing solution was added to 990 μL of mouse plasma, vortexed for 30 s, and then incubated at 37° C. At 30 s, 1 min, 5 min, 10 min, 30 min, 60 min and 120 min, 50 μL of drug-containing plasma was collected, to which was immediately added 150 μL of acetonitrile to terminate the enzymatic reaction, and then centrifuged at 20000 rpm and 4° C. for 10 min. 50 μL of supernatant was taken out and injected into HPLC, to determine the concentration of propofol by internal standard method. The decomposition rate of the prodrug was calculated from the concentrations of propofol or other substituted phenols. Chromatographic conditions: Agilent Zorbax XdB C18 column (150 mm)×4.6 mm, 5 μm); column temperature 30° C.; the mobile phase, water:acetonitrile (40:60, v/v); fluorescence wavelength: excitation wavelength (Ex) at 276 nm, emission wavelength (EM) at 310 nm; flow rate: 1.2 mL/min; retention time: internal standard (thymol) 3.9 min, propofol 7.4 min. Linear range of propofol or other substituted phenols: 50-35000 ng/mL. Instruments: Waters 2695 high performance liquid chromatograph, Waters 2475 fluorescence detector.

[3] = system: Kunming mice; format: in vivo, mouse
Experimental: For each drug, 10 male Kunming mice weighing 20-35 g were included, and the dose of each drug was 2×ED50 in mice. After the compound of the present invention and fospropofol were respectively dissolved in saline, the resultant solutions were injected via the mouse tail vein. For propofol, a glucose dilution (5 mg/mL) of a commercially available emulsion of diprivan was selected and injected via the mouse tail vein; while, for another substituted phenol molecule (CAS:1637741-58-2), its 30% fat emulsion was prepared as a medicated emulsion. The concentration of the injectable solution of the compound according to the present invention was 10-15 mg/mL, and the concentration of the injectable solution of fospropofol was 55 mg/mL, while the concentration of the injectable solution of another substituted phenol molecule (CAS:1637741-58-2) was 1 mg/mL. After injection of tested drug, the occurrence time T1 of righting reflex after its disappearance, the duration T2 for the disappearance of righting reflex (i.e. anesthesia time) and the time T3 required for the animal to recover completely after waking up were recorded. Complete recovery refers to the recovery of autonomous activities of animals to the level before administration. In the experiment, animals were not given respiratory support such as oxygen inhalation or intubation.

[4] = Table 3, dose 2×ED50, tail vein injection, male Kunming mice

Compound	TI (therapeutic index) [1]	Decomposition rates of prodrugs ([2]; 30 s)	Decomposition rates of prodrugs ([2]; 1 min)	Decomposition rates of prodrugs ([2]; 5 min)	Decomposition rates of prodrugs ([2]; 10 min)	Decomposition rates of prodrugs ([2]; 30 min)	Decomposition rates of prodrugs ([2]; 60 min)	Decomposition rates of prodrugs ([2]; 120 min)	T1: the onset time after injection [3, 4]	T2: the duration of disappearance of righting reflex [3, 4]	T3: the time required for righting reflex to recover to autonomous activity [3, 4]	T1: the onset time after injection ([3]; mouse, in vivo)	T2: the duration of disappearance of righting reflex ([3]; mouse, in vivo)
CC(C)c1cccc(C(C)C)c1OC(=O)COC(=O)CN1CCCC1.Cl [Compound 42]	3.7	91%	100%	100%	100%	100%	100%	100%	Immediate	6 to 12 min	1 to 2 min	–	–
CC(C)c1cccc(C(C)C)c1OC(=O)COC(=O)CN1CCN(C)CC1 [Compound 7]	3.9	91%	100%	100%	100%	100%	100%	100%	–	–	1 to 2 min	Immediate	6 to 13 min
CC(C)c1cccc(C(C)C)c1OC(=O)COC(=O)CN1CCOCC1 [Compound 22]	4.7	58%	66%	80%	89%	100%	100%	100%	–	–	1 to 2 min	Immediate	4.5 to 10.5 min
